# Source: paper PMC8875489, “Pharmaceutical and Safety Profile Evaluation of Novel Selenocompounds with Noteworthy Anticancer Activity” (Pharmaceutics, 2022)
# Test system: not listed separately
# Experiment: PAMPA membrane permeability test (capillary electrophoresis)
# Type: in vitro ADME
# Conditions: 50 μM in PBS pH 7.4, 5 h, room temperature, read-out: In Vitro Permeability
# Protocol: The passive transport and membrane absorption of 5 selected selenocompounds (EDA-58, EDA-71, EDA-119, EDA-122, and EDA-A6) were evaluated with the in vitro parallel artificial membrane permeability assay (PAMPA). This PAMPA assay could provide better predictability and membrane permeability correlations compared to the data obtained for human absorption in the Caco-2 cell line. The Precoated PAMPA Plate System Gentest™ (Corning, Bradford, MA, USA) was used to perform the permeability assay for the 5 selected Se compounds. The protocol of the permeability assay was similar to the previously described ones and is detailed in the Supplementary Materials.
# Five selenocompounds (EDA-58, EDA-71, EDA-119, EDA-122, and EDA-A6) were evaluated with the PAMPA in vitro assay using the CE technique.
# [formula] Scheme 1 Calculation of the in vitro permeability (cm/s). A (filter area) cm^2 = 0.3; VD (donor well volume) mL = 0.3; VA (acceptor well volume) mL = 0.2; t (incubation time) seconds = 18,000; CA(t) (compound concentration in acceptor well at time t); CD(t) (compound concentration in donor well at time t). […]
# (§1) 1.3. PAMPA test: membrane permeability evaluation.
# (§2) The passive transport and the membrane absorption of 5 selected selenocompounds (EDA-58, EDA-71, EDA-119, EDA-122, EDA-A6) were evaluated in the in vitro Parallel Artificial Membrane Permeability Assay (PAMPA). The protocol of the permeability assay was similar to the ones previously described.
# 1.3.1. Stock solutions and sample preparation for PAMPA test
# Working solutions of the tested compounds at the concentration of the 50 μM in the phosphate saline buffer (PBS, pH 7.4) were prepared from the stocks in the pure dimethyl sulfoxide (DMSO) and stored at -20° C. Moreover, to draw the precise calibration curves for each tested (EDA-58, EDA-71, EDA-119, EDA-122, EDA-A6) and reference com- […]
# The Precoated PAMPA Plate System Gentest™ (Corning, Bradford, MA, USA) was used to perform permeability assay for the 5 selected Se-compounds. The essential part of […]
# solvents. PAMPA Plate System was brought to room temperature 30 min before use.
# The 96-well filter plate precoated with lipids was used as a permeation acceptor, whereas the 96-well receiver plate acted as the permeation donor plate. Therefore, the compound solutions were added to the wells (300 μL/well) of the receiver plate and PBS was added to wells (200 μL/well) of the precoated filter plate.
# Then, the filter plate was coupled with the receiver plate and both were incubated at room temperature for five hours without agitation. […] Fi-nally, the permeability coefficients (Pe, [cm/s]) of the tested compounds were estimated using the formula provided by the PAMPA Plate System manufacturer.
# 1.3.3. Capillary electrophoresis (CE) analytical method […]
# were calculated in both the donor and acceptor compartments using the capillary electro-
row,SMILES,"Papp at 5 h, 50 µM"
1,"Cn1c(=O)c2c(ncn2C)n(C)c1=O [Caffeine, caffeine, reference compound]",3.42 ×10⁻⁶ cm/s
2,"CCn1cc(C(=O)O)c(=O)c2cc(F)c(N3CCNCC3)cc21 [Norfloxacin, norfloxacin, reference compound]",0.0949 ×10⁻⁶ cm/s

# Same assay, conditions: 5 h
row,SMILES,% Perm. (percentage that crossed from the donor well to the acceptor well)
1,"Cn1c(=O)c2c(ncn2C)n(C)c1=O [Caffeine, caffeine, reference compound]",6.05%

# Test system: Salmonella Typhimurium TA100 strain
# Experiment: not given
# Conditions: 1 µM; TA100; alert ≥ 2.0
# Protocol: Safety profiles were evaluated using an in vitro microbiological method adapted to the microplate Ames test (384-well microtitration plate), which applies Salmonella enterica serovar Typhimurium bacterial strains (the gold standard in mutagenicity research). The experiment was performed according to a previously described protocol, which is provided in the Supplementary Materials. Briefly, the TA 100 strain (deprived of the ability to synthesize the histidine) was incubated with each tested compound in an exposure medium containing a limited amount of histidine. The reversion events were counted both manually and by means of a microplate reader. Each fold increase bigger than two times the baseline level (≥2.0-fold) was considered to indicate a mutagen alert. The experiments and data analyses were prepared according to the procedure that was previously described by Flückiger-Isler et al.. The assay was performed in triplicate. The positive control selected for the mutagenicity assays was NQNO, which causes genome point mutations; specifically, it promotes G:C → A:T transitions in the Salmonella Typhimurium TA-100 strain and other bacteria such as Vibrio harveyi and Escherichia coli.
# In the next step of the studies, the in vitro safety profiles of the tested selenocompounds were evaluated. All compounds were tested with the 384-well plate microfluctuation Ames test. The mutagenic index (MI) was used as the measure of mutagenicity.
# 1.5. Safety profile evaluation - Ames microplate mutagenicity assay
# Safety profile was evaluated by the means of in vitro microbiological methods – adapted to microplate Ames test, which applies Salmonella enterica serovar Typhimurium bacterial strains (the gold standard in mutagenicity research).
# 1.5.1. Compounds preparation
# To evaluate the impact of tested compounds and of references on Salmonella enterica serovar Typhimurium (onwards Salmonella Typhimurium) TA-100 strain growth by means of the Ames test, the compounds or the reference were dissolved in the pure DMSO, to obtain the corresponding 10 mM stock solutions. Working solutions for tested compounds (25 μM and 250 μM concentrations) were prepared before the assay in DMSO.
# 1.5.2. Microplate Ames mutagenicity assay protocol
# Prior to the experiment, Salmonella Typhimurium was cultured overnight (NB-2 liq-uid medium in the presence of 25 μg/mL ampicillin). At the day of the experiment, fresh dilutions of the tested compounds (25 μM and 250 μM), reference compound (methylse-leninic acid) and standard mutagen (4-nitroquinoline-N-oxide at 2.5 μM and 12.5 μM) in DMSO were prepared. The positive control selected for the mutagenicity assays was NQNO, which causes point mutations at the genome. Specifically, it promotes G:C → A:T transitions in Salmonella Typhimurium TA-100 strain and in the other bacteria such as Vib-rio harveyi and Escherichia coli.
# The mutagenic potential of the tested derivatives was evaluated by the incubation of the abovementioned bacteria (deprived of the ability to synthesize the histidine) with spe-cific concentrations of the tested compounds (for 90 min in the exposure medium), con-taining a limited amount of histidine (enough to provide approximately 2-3 cell divisions).
# The occurrence of reversion events to histidine prototrophy was observed through the bacterial growth in the indicator medium without histidine after 48 h of incubation in temperature of 37° C [45]. The final compound and the mutagenic agent concentrations in each single well of a 384 well plate were 1 μM and 10 μM for the compounds; and 0.1 μM and 0.5 μM for the mutagen. Lastly, both a manual count and a microplate reader were used to obtain the results. The medium control baseline (MCB) was estimated as the mean number of revertants in the medium control plus one standard deviation. Each fold in-crease bigger than two times the baseline level ≥ 2.0 was considered as a mutagen alert.
row,SMILES,Fold Increase over Baseline
1,"COc1cccc2c1C(=O)c1c(O)c3c(c(O)c1C2=O)C[C@@](O)(C(=O)CO)C[C@@H]3O[C@H]1C[C@H](N)[C@H](O)[C@H](C)O1 [DOXO, doxorubicin, reference compound]",1.31
2,"COC(=O)C[Se]C(=O)c1ccccc1Cl [EDA-46, methyl 2-((2-chlorobenzoyl)selanyl)acetate]",1.65
3,"C[Se](=O)O [MetSeAc, methylseleninic acid, reference compound]",0.75
4,"NC(=O)C[Se]C(=O)c1ccccc1 [EDA-117, Se-carbamoylmethyl benzoselenoate]",0.49

# Same assay, conditions: 1 µM; TA100; mutagenic if MI ≥ 2
row,SMILES,MI (mutagenic index)
1,"COc1cccc2c1C(=O)c1c(O)c3c(c(O)c1C2=O)C[C@@](O)(C(=O)CO)C[C@@H]3O[C@H]1C[C@H](N)[C@H](O)[C@H](C)O1 [DOXO, doxorubicin, reference compound]",1.64
2,"COC(=O)C[Se]C(=O)c1ccccc1Cl [EDA-46, methyl 2-((2-chlorobenzoyl)selanyl)acetate]",1.56
3,"C[Se](=O)O [MetSeAc, methylseleninic acid, reference compound]",0.90
4,"NC(=O)C[Se]C(=O)c1ccccc1 [EDA-117, Se-carbamoylmethyl benzoselenoate]",0.66

# Same assay, conditions: 1 µM; TA100; threshold ≥ 0.99
row,SMILES,B (binomial B value)
1,"COc1cccc2c1C(=O)c1c(O)c3c(c(O)c1C2=O)C[C@@](O)(C(=O)CO)C[C@@H]3O[C@H]1C[C@H](N)[C@H](O)[C@H](C)O1 [DOXO, doxorubicin, reference compound]",1.00
2,"COC(=O)C[Se]C(=O)c1ccccc1Cl [EDA-46, methyl 2-((2-chlorobenzoyl)selanyl)acetate]",1.00
3,"C[Se](=O)O [MetSeAc, methylseleninic acid, reference compound]",0.37
4,"NC(=O)C[Se]C(=O)c1ccccc1 [EDA-117, Se-carbamoylmethyl benzoselenoate]",0.36

# Same assay, conditions: 10 µM; TA100; alert ≥ 2.0
row,SMILES,Fold Increase over Baseline
1,"COc1cccc2c1C(=O)c1c(O)c3c(c(O)c1C2=O)C[C@@](O)(C(=O)CO)C[C@@H]3O[C@H]1C[C@H](N)[C@H](O)[C@H](C)O1 [DOXO, doxorubicin, reference compound]",0.77
2,"COC(=O)C[Se]C(=O)c1ccccc1Cl [EDA-46, methyl 2-((2-chlorobenzoyl)selanyl)acetate]",1.00
3,"C[Se](=O)O [MetSeAc, methylseleninic acid, reference compound]",0.74
4,"NC(=O)C[Se]C(=O)c1ccccc1 [EDA-117, Se-carbamoylmethyl benzoselenoate]",0.42

# Same assay, conditions: 10 µM; TA100; mutagenic if MI ≥ 2
row,SMILES,MI (mutagenic index)
1,"COc1cccc2c1C(=O)c1c(O)c3c(c(O)c1C2=O)C[C@@](O)(C(=O)CO)C[C@@H]3O[C@H]1C[C@H](N)[C@H](O)[C@H](C)O1 [DOXO, doxorubicin, reference compound]",0.95
2,"COC(=O)C[Se]C(=O)c1ccccc1Cl [EDA-46, methyl 2-((2-chlorobenzoyl)selanyl)acetate]",0.94
3,"C[Se](=O)O [MetSeAc, methylseleninic acid, reference compound]",0.96
4,"NC(=O)C[Se]C(=O)c1ccccc1 [EDA-117, Se-carbamoylmethyl benzoselenoate]",0.57

# Same assay, conditions: 10 µM; TA100; threshold ≥ 0.99
row,SMILES,B (binomial B value)
1,"COc1cccc2c1C(=O)c1c(O)c3c(c(O)c1C2=O)C[C@@](O)(C(=O)CO)C[C@@H]3O[C@H]1C[C@H](N)[C@H](O)[C@H](C)O1 [DOXO, doxorubicin, reference compound]",0.46
2,"COC(=O)C[Se]C(=O)c1ccccc1Cl [EDA-46, methyl 2-((2-chlorobenzoyl)selanyl)acetate]",0.88
3,"C[Se](=O)O [MetSeAc, methylseleninic acid, reference compound]",0.47
4,"NC(=O)C[Se]C(=O)c1ccccc1 [EDA-117, Se-carbamoylmethyl benzoselenoate]",0.18

# Test system: not listed separately
# Experiment: Experimental aqueous solubility (UV spectrophotometry of saturated solutions)
# Type: physicochemical
# Conditions: water (saturated solution), 20 °C, water, thermodynamic from solid; logSm calculated based on solubility Sm (mol/L); read-out: Experimental Aqueous Solubility logSm (converted)
# Protocol: Experimental aqueous solubility was determined following a previously described procedure. Briefly, calibration curves were obtained by means of UV spectrometry for each compound, and their respective linear equations were obtained. Afterwards, saturated solutions of each compound were obtained, and they were diluted until the concentration fell within the calibration range, thus enabling the correct concentration interpolation. […] A detailed description of this process can be found in Supplementary Materials.
# The aqueous solubility of the tested organic Se compounds was experimentally determined following a previously described procedure. The chosen assay used UV spectrophotometry to estimate the concentration of the saturated solution with known dilutions of the tested compound at room temperature (20° C) after 24 h. The concentrations of the solutions were used to obtain the interpolation of the measured UV absorbance of the saturated solution dilution from the calibration curve drawn using solutions previously prepared in methanol/water mixtures. […]
# 1.2. Determination of the aqueous solubility
# 1.2.1. Preparation of the saturated solutions of tested compounds
# The saturated solutions (2 mL) of the tested Se-compounds in water were prepared at H2O boiling point in small glass vials. Later, vials were covered to avoid evaporation and all solutions were left 1 day at 20° C, after when every solution was filtered. Finally, the concentration of the Se-compounds was determined through UV spectrophotometric measurements. To estimate correctly the concentration, calibration curves with known concentrations were prepared, and the saturated solutions were diluted till reaching a point within the range of the respective calibration curve.
# 1.2.2. Preparation of the calibration curve stock solutions for UV spectrometry The stock solutions of 10 selenoesters (EDA-26, EDA-71, EDA-73, EDA-74, EDA-93, […]
# were prepared in methanol (99% purity) at a 1 g/L concentration. Additionally, calibration solutions in the range from 0.0005 to 0.02 [g/L] were prepared for each Se-compound and their UV absorbance was determined to draw the corresponding calibration curve.
# 1.2.3. Sample preparation of saturated filtrates for UV spectrometry
# The 100-fold diluted solutions of the saturated filtrates of the Se-compounds were prepared in the anhydrous methanol (99% purity), by addition of 70 μL of the correspond-ing methanol stock solution over anhydrous methanol till filling a 7 mL final volume. Af-terwards, the absorption of abovementioned solutions was determined. Finally, the solu-tions were diluted with 99% methanol from 1 to 160 times, in function of the compound.
# The aim of this procedure was to determine the concentration of the Se-compounds […]
# through the controlled dilution of the solution with unknown concentration till its UV absorbance fell within the range of the calibration solutions.
# 1.2.4. Solubility estimation
# For each compound, the calibration curve was calculated through the UV absorbance measurements and the linear equation of the linear part of the curve was calculated. The absorbance of the dilution was then interpolated in this range, finding its concentration.
# To determine the solubility, this concentration was multiplied by the dilution factor, which was specific for each derivative. This action enabled the estimation of the in vitro solubility of the tested derivatives in saturated solutions. All the solubility values were the average value obtained from the 3 independent measurements.
# as §1, §2
# 1.3.1. Stock solutions and sample preparation for PAMPA test […]
row,SMILES,solubility at 24 h
1,"NC(=O)C[Se]C(=O)c1ccccc1 [EDA-117, Se-carbamoylmethyl benzoselenoate]",4.27 mM

# Same assay, conditions: water (saturated solution), thermodynamic from solid; water, room temperature (20° C), after 24 h, average of 3; read-out: Experimental Aqueous Solubility
row,SMILES,solubility at 24 h
1,"NC(=O)C[Se]C(=O)c1ccccc1 [EDA-117, Se-carbamoylmethyl benzoselenoate]",1030 µg/mL
